According to the METLIN SMRT retention time set (Domingo-Almenara et al. 2019):

assay: gradient 5% acetonitrile 3 min, to 50% in 2 min, to 85% in 15 min, held 3 min, 100 µL/min; conditions: column: Zorbax Extend-C18 2.1 x 50 mm; eluents: water / acetonitrile, 0.1% formic acid
In short: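 The system's dead and dwell volumes were 40 μL and 900 μL, with a Zorbax Extend-C18 column (2.1 × 50 mm, 1.8 μm) run at 100 μL/min in water and acetonitrile containing 0.1% formic acid each. Pure standards were analyzed in mixtures of ~100 molecules by HPLC–quadrupole time-of-flight mass spectrometry in positive and negative ionization mode. Retention time was assigned from computationally picked, manually inspected adduct peaks.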

Compound | RP-LC retention time [s]
CCc1cccc(NC(=O)Cn2nc3c(N(C)C4CCCCC4)nccn3c2=O)c1 | 851
Cc1ccccc1-c1nc2cnccn2c1NCCC(=O)NCc1ccc(F)c(Cl)c1 | 714
COc1cc(OC)cc(-c2noc(Cn3ccn4nc(-c5ccc(Cl)cc5)cc4c3=O)n2)c1 | 1130
CCCc1noc(-c2cccn3c(CC(=O)N4CCSCC4)nnc23)n1 | 653
O=S(=O)(c1cccn2c(SCc3cccc(F)c3)nnc12)N1CCc2ccccc2C1 | 959
CCOc1ccccc1NC(=O)C1CCN(c2cnc(N3CCCCC3)nc2)CC1 | 928
Cc1nn(CC(=O)N2CCCC(C)C2)c(=O)c2nc(-c3ccccc3)sc12 (centres undefined) | 875
Cc1ccc(Cl)cc1NC(=O)N(C)CCO | 737
O=C(c1sc2ncccc2c1-n1cccc1)N1CCN(c2ccccc2Cl)CC1 | 1120
CCCCn1c(=O)c2ccccc2n(Cc2nc(-c3cc(OC)cc(OC)c3)no2)c1=O | 1160
Cc1cccc(CNC(=O)C2CCCN(S(=O)(=O)c3cn(C(C)C)cn3)C2)c1 (centres undefined) | 781
O=C(c1ccc(F)c(Cl)c1)N1CCC(n2c(-c3ccco3)nc3cccnc32)C1 (centres undefined) | 800
O=C(NCc1ccccc1F)C1CCCN(c2nnc3ccc(C(F)(F)F)cn23)C1 (centres undefined) | 781
O=C(C1=CN(c2cccc(Cl)c2)c2ccccc2S1(=O)=O)N1CCCC1 | 814
O=C(NCC(=O)N1CCCc2ccccc21)c1ccccc1Br | 822
CC(C)Sc1cc(NCCCO)c([N+](=O)[O-])c2nonc12 | 723
Cc1cccc(NC(=O)N2CCCC2c2nc(-c3cccc(C)c3)no2)c1 (centres undefined) | 598
CCOc1ccccc1NC(=O)c1ccc(=O)n(Cc2ccccc2)n1 | 980
O=C(Cn1nc2c3ccccc3ncn2c1=O)NCCc1ccc(Cl)cc1 | 707
O=C(NC1CC1)c1ccc(OCC2CCN(C(=O)c3ccccc3C(F)(F)F)CC2)cc1 | 836
O=C(CSc1ccc(N2CCOCC2)nn1)Nc1ccc(Cl)cc1 | 725
COc1cc2c(cc1OC)C(C(=O)N1CCN(C)CC1)C(c1ccc(SC)cc1)N(C)C2=O (centres undefined) | 612

Compound | RP-LC retention time [s]
NS(=O)(=O)c1ccc(CCNC(=O)c2ccc(-n3cnnn3)cc2)cc1 | 622
O=C([C@@H]1C[C@H](Oc2ccccc2)CN1C(=O)C1CCC1)N1CCCC1 | 750
O=C(CCc1nc(CSc2nnc(-c3ccccc3)o2)no1)Nc1ccc(Br)cc1 | 967
CCC(C(=O)N1CCN(c2ccccn2)CC1)n1c2ccccc2c2cnn(C)c(=O)c21 (centres undefined) | 638
Cc1oc(-c2[nH]ncc2C(=O)N2CCOCC2)cc1S(=O)(=O)N1CCC(C)CC1 | 703
Cc1nn(C(C)C)c(C)c1-c1cc(C(=O)O)[nH]n1 | 617
CCc1c(C2CCN(C(=O)C3COc4ccccc4O3)CC2)noc1N (centres undefined) | 684
Cc1ccc(C)c(N2CCN(C(=O)c3cn4cc(C)ccc4n3)CC2)c1 | 797
CCOC(=O)c1c(C)[nH]c(CCC(=O)NCc2ccc(SC)cc2)c1C | 714
COC(=O)c1cc(OCC(=O)Nc2ccc3c(c2)OCCO3)c2cc(Cl)ccc2n1 | 851
CC(=O)Nc1nnc(C2=COCCO2)o1 | 515
COCCCNC(=O)c1cc(-c2ccccc2)nc2n[nH]c(-c3ccccc3)c12 | 769
Cn1cc(-c2nc(C(=O)N3CCN(c4ccccc4)CC3)cs2)c2cccnc21 | 911
Cc1ccc(Nc2cc(-n3ccnc3)ncn2)cc1C | 671
O=C(Nc1ccc(N2CCOCC2)cc1)c1cn2c(n1)COCC2 | 600
CC1CCC(NC(=O)C2CCCN(S(=O)(=O)c3c[nH]c(C(=O)N4CCCCCC4)c3)C2)CC1 (centres undefined) | 938
COc1ccc2c(c1)C1(CCN(S(=O)(=O)c3cccc(C#N)c3)C1)C(=O)N2C (centres undefined) | 875
Cn1c(=O)n(C)c2cc(S(=O)(=O)C3CCCCC3)c(NC(=O)c3ccccc3F)cc21 | 940
Cn1nnnc1SCC(=O)Nc1nc2c(s1)C(=O)CCC2 | 607
CCn1ccc2cc(S(=O)(=O)N3CCCC(C(=O)NC4CCCCCC4)C3)ccc21 (centres undefined) | 1080
CCc1ccc(S(=O)(=O)Nc2ccc3c(c2)N(C(=O)c2cccs2)CC3)s1 | 923
COc1ccccc1CCC(=O)N1CCn2cnnc2C1 | 594
